Results taken from a melting point compilation (Tetko et al.; mined from patent text by program, amines drawn as free bases though some values may be those of a salt).

Compound | melting point [°C]
Cn1c(C(F)(F)F)cc(=O)n(-c2cc(OCCC3OCCO3)c(Cl)cc2F)c1=O | 125 to 127
CC(C)C1CC(=O)C(c2ccccn2)C(=O)C1 (stereo not drawn) | 110 to 112
CC(=O)c1cc2sc(N)c(C#N)c2s1 | 285
C#CCN(C)C(=S)Nc1ccccc1CC(=O)OC | 83 to 84
O=C1Nc2cc3c(cc2SC1CCCBr)OCO3 (stereo not drawn) | 168 to 169
CCOCCCNC(=O)c1ccc(S(=O)(=O)NC(=O)c2ccc(C(=O)NCC(=O)O)nc2)cc1 | 109
O[C@H]1CC[C@@H](CCN2CCC(=C3c4ccc(F)cc4Sc4ccc(C(F)(F)F)cc43)CC2)CC1 | 147 to 150
Cc1cccc2c(=O)n(C)c(-c3ccc(OC4CCN(C5CCC5)CC4)cc3)nc12 | 152 to 154
ON=Cc1cc(Br)ccc1Cl | 126 to 128
CCCCCCCCNC(=O)ON=C(C1=CC(=O)C(C)(C2CCCCC2)O1)c1ccccc1 (stereo not drawn) | 85 to 87
CCN(C)c1nc2ccccc2n2cnc(-c3nc(C4CC4)no3)c12 | 96 to 97
CC12CC[C@](C(=O)N3CCC4(C=Cc5ccccc54)CC3)(OC1=O)C2(C)C | 215 to 216
CCOC(=O)NC1(c2ccccc2Cl)CCCCC1=O (stereo not drawn) | 112 to 114
CCOc1nc(Cl)nc(N(C)C)n1 | 124
CC(C)CCNC(=O)c1c(N)cc(Cl)cc1Cl | 148 to 150
CC(=O)NC[C@H]1CN(c2ccc(N3CCC(n4nnnc4CC(=O)N4CCOCC4)CC3)c(F)c2)C(=O)O1 | 146 to 148
ClC(Cl)(Cl)c1nncs1 | 58
CN(C)C1CCc2[nH]c3cccc(F)c3c2C1 (stereo not drawn) | 166 to 168
CCS(=O)(=O)N(C)C1c2cc(F)c(Cl)cc2OC(C)(C)C1O (stereo not drawn) | 188 to 190
C=CCn1c(-c2c(Cl)cccc2Cl)nc(-c2ccncc2)c1-c1ccc(C)cc1 | 147 to 149
CCNc1nc(C)c(-c2ccnc(Nc3cc(Cl)c(N4CCOCC4)c(Cl)c3)n2)s1 | > 300
O=C(c1c(F)cccc1F)C1CC1c1ccc(Br)cc1 (stereo not drawn) | 64 to 65
Cc1nc(-c2sc(-c3ccc(Cl)cc3)nc2C)sc1C(=O)O | 265 to 268

Compound | melting point [°C]
CNc1nc(OCc2ccccc2)ccc1[N+](=O)[O-] | 149
Nc1nc2ccc(Oc3ccc(F)cc3)cc2s1 | 126 to 128
CCOC(=O)c1c(CN(CC)CC)nc2sc3c(c2c1-c1ccc(OC)c(OC)c1)CCN(C(=O)NC)C3 | 153 to 155
CCOC(=O)c1c(C(F)(F)F)nc(C(F)F)c(C(=O)OC)c1Cl | 24 to 25
CC1(C)Oc2cc3nonc3cc2C(N2CCCC2=O)C1O (stereo not drawn) | 242 to 244
CNC(=O)Oc1ccc(CN2CCN(c3ccc([N+](=O)[O-])cc3)CC2)cc1OC | 155 to 157
CCCCCN1CCC(n2nc(-c3c(-c4ccccc4)nn4ccccc34)ccc2=O)CC1 | 106
CC(C)(C)OC(=O)NC1CCCCCC=CC2CC2(C(=O)NS(=O)(=O)C2CC2)NC(=O)C2CC(OC(=O)c3ccc4nccnc4c3)CN2C1=O (stereo not drawn) | 158 to 160
CCc1nc2c(C)cc(C)nc2n1Cc1ccc(C(c2ccc(C)cc2)C(C(=O)O)C(=O)O)cc1 (stereo not drawn) | 140 to 141
NS(=O)(=O)OCCOc1ccc(-n2cncn2)cc1 | 134 to 136
N#Cc1ccc(-c2ccn(-c3ccc(C#N)cc3)c2)cc1 | 234 to 240
CCCCOCCOc1ccc(-c2ccc3c(c2)C=C(C(=O)Nc2ccc(S(=O)Cc4nccn4CCCC(=O)OCC)cc2)CCN3CC(C)C)cc1 (stereo not drawn) | 134 to 136
COc1cc(C(=O)c2[nH]c3ccccc3c2C)cc([N+](=O)[O-])c1O | 195 to 197
CC(C)c1ccc2c(CCCCN(C)S(=O)(=O)c3ccccc3)cc(C(=O)O)c-2cc1 | 153 to 155
CCCCN(CCCC)c1nnc(N)s1 | 116 to 117
Cc1ccc(-c2cc(Cl)c3ccccc3n2)cc1 | 75 to 77
CC(C)(C)NCC(O)C(Cl)(Cl)Cl (stereo not drawn) | 48 to 50
Cc1ccccc1C(=O)Nc1ccc(C(=O)N2CCCC(OCC(=O)N3CCSCC3)c3ccccc32)cc1 (stereo not drawn) | 235 to 237
CCc1c(OC)nc2nc(C(N)=O)cn2c1C | 256 to 259
CC1CCC(N2c3ccccc3Oc3c(Cl)cccc32)=N1 (stereo not drawn) | 120 to 122
CCN(CC)C(=O)C(=NO)c1c[nH]c2c1ccc1c3ccccc3[nH]c12 | 268 to 269
CN(C)C(=O)Sc1ccc(C(F)(F)F)cc1C(=O)c1ccc(C#N)cc1 | 159
CN1C(=S)N(c2ccc(C#N)c(C(F)(F)F)c2)C(=N)C12CCCC2 | 165 to 166

Compound | melting point [°C]
O=C(Nc1ccc(OCCCN2CCNCC2)c2ccccc12)c1cc(F)cc(N2CCCCC2)c1 | 70 to 72
CCOCc1nc2c(N)nc3cccnc3c2n1CC1(O)CCOCC1 | 166 to 167
COc1cc(COc2nn(-c3ccccc3)cc2/C=C/c2nc(N3CCOCC3)sc2C)ccc1OCc1nc(-c2ccc(CC(=O)O)cc2)oc1C | 171 to 173
CCOC(=O)c1ccccc1Nc1nc(Nc2ccc3c(c2)CCN(CCOC)CC3)ncc1Cl | 78 to 80
COC(=O)C1=C(C)NC(C)=C(C(C)=O)C1c1ccccc1Br (stereo not drawn) | 146 to 148
COC(=O)c1oc(C(C)(C)C)cc1NC(=O)Nc1ccc(F)cc1 | 81 to 82
CCc1oc2ccccc2c1C(=O)c1c(Br)cc(Br)c(O)c1Br | 153 to 154
COc1ccc(CN(C)CCc2ccc(NC(=O)c3cccc4c(=O)c5ccccc5sc34)cc2)cc1OC | 180
Cc1ncc(CSSCc2cnc(C)c(O)c2CN(C)C)c(CN(C)C)c1O | 195 to 201
CCCNC(=O)c1ccccc1C(c1ccc(O)cc1)c1ccc(O)cc1 | 202
CC(=O)NNc1nc(C(F)(F)F)nc(-c2ccc(S(C)(=O)=O)cc2)c1-c1ccccc1 | 265 to 268
Cc1ccc(S(=O)(=O)n2ccnc2C(O)(c2ccccc2)c2ccccc2Cl)cc1 (stereo not drawn) | 165 to 167
CC(C)Oc1ccc(S(=O)(=O)c2c(O)cccc2F)c([N+](=O)[O-])c1 | 117 to 119
CCCCCCCCCNC(=O)OCCCNC(=O)OC1CCN(C(=O)Oc2ccc(Oc3ccccc3)cc2)CC1 | 89 to 91
O=c1cc(-c2cccc(Br)c2)sc(N2CCOCC2)c1 | 181 to 182
CCc1onc(-c2ccccc2)c1C(=O)NCCCN1CCN(c2ccccc2OCC(F)(F)F)CC1 | 102 to 104
O=C(OCCN1CCCC1)c1ccccc1Nc1ccnc2cc(Cl)ccc12 | 102 to 104
C[C@H]([C@](O)(Cn1cncn1)c1ccc(F)cc1F)S(=O)(=O)N1CCOCC1 | 157 to 158
Cc1cc(C)cc(S(=O)(=O)c2cccc(F)c2C#N)c1 | 167 to 168
O=C(c1[nH]c2ccc(F)cc2c1Sc1ccccc1)N1CCCC1 | 184 to 186
NC(=O)c1cccc2[nH]c(-c3ccc(O)cc3)nc12 | 266 to 267
Cc1cccc(C)c1N(CCCCCCc1cccnc1)C(=O)C(C)N1C(=O)c2ccccc2C1=O (stereo not drawn) | 113 to 115
